# Where “and” joins values, the source holds several entries; their conditions need not be identical. Equal values may be shown once.
# What was measured:
# [1] = DPPH radical scavenging assay; conditions: ±SD; 30 min, room temperature
# Method: The DPPH radical scavenging assay of samples was performed with ascorbic acid as a positive control. Briefly, 100 μL of different concentrations of the complexes, dissolved in DMSO, was mixed with 100 μL of 0.06 mM DPPH methanolic solution and incubated at room temperature in the dark for 30 min. The change in absorbance at λ = 517 nm was analyzed with the use of a 96-well microplate reader (Epoch, BioTek System, Winooski, VT, USA). The control was composed of DPPH and DMSO. DPPH inhibition was calculated according to the following equation:DPPH Inhibition (%) = [(Acontrol − Asample)/Acontrol] × 100% The radical scavenging activity of the samples was shown as the IC50 value (the concentration of the analyzed samples that caused a decrease in the non-reduced form of the DPPH radical by 50%).
# [2] = ABTS radical scavenging assay; conditions: ±SD; 10 min, 30 °C
# Method: The ABTS radical scavenging assay of samples (ligands or complexes) was performed with ascorbic acid as a positive control. Briefly, 30 μL of different concentrations of the samples, dissolved in DMSO, was mixed with 170 μL of ABTS solution (2 mM ABTS diammonium salt, 3.5 mM potassium persulfate) and completed with water to a final volume of 300 μL. ABTS solution with DMSO was used as a control. […] ABTS inhibition was calculated according to the following equation:ABTS Inhibition (%) = [(Acontrol − Asample)/Acontrol] × 100% The radical scavenging activity of the samples was shown as the IC50 value (the concentration of the analyzed samples that caused a decrease in the non-reduced form of the ABTS radical by 50%).
# [3] = system: A375 (melanoma); assay: MTT cytotoxicity assay on A375 cells; assay type: cell-based, human; conditions: for IC50 ± SD, A375: 24 h incubation; for IC50: Homo sapiens, A-375, 24 h incubation, read-out: IC50 ± SD, A375
# Method: (§1) Cytotoxic activity of the investigated compounds was evaluated against T98G (glioblastoma), HepG2 (hepatoma), LS-180 (colon cancer) and A375 (melanoma) cell lines. Human normal skin fibroblasts, CCD-1059Sk (CRL-2072), were used as reference (non-cancerous) cells. All of the cell lines were obtained from American Type Culture Collection (ATCC; Manassas, VA, USA). A375, T98G and CCD-1059Sk cells were cultured in Dulbecco’s Modified Eagle’s Medium (DMEM) (Sigma Aldrich, St. Louis, MO, USA) supplemented with 10% FBS, penicillin (100 U/mL) and streptomycin (100 μg/mL). LS-180 and HepG2 cells were cultured in Eagle’s Minimum Essential Medium supplemented with 10% FBS, penicillin (100 U/mL) and streptomycin (100 μg/mL). All of the cells were maintained at 37 °C in a humidified atmosphere of 5% CO2. The compounds were dissolved in DMSO in order to obtain stock solutions. At the day of the experiment, the suspension of cells (1 × 10^5 cells/mL) was distributed onto 96-well plates at a volume of 100 μL/well. After attachment, the cells were treated with the increased concentrations of the tested compounds in medium containing 2% FBS and incubated for 24 h. Then, the medium was removed from wells, and cells were rinsed with PBS. Afterwards, 15 μL of MTT working solution (5 mg/mL in PBS) was added to each well, and the plates were incubated for 3 h. Subsequently, 100 μL of 10% SDS solution was added to each well in order to dissolve the precipitated formazan crystals. After overnight incubation at 37 °C, the absorbance of the obtained solution was measured at λ = 570 nm using a microplate reader (Epoch, BioTek Instruments, Inc., Winooski, VT, USA). At least two independent experiments were performed in triplicate. […] IC50 values of the investigated derivatives and positive control (etoposide) were calculated using the IC50 online calculator [101].
# [4] = system: HepG2 (hepatoma); assay: MTT cytotoxicity assay on HepG2 cells; assay type: cell-based, human; conditions: MTT, 24 h incubation; for IC50: Homo sapiens, HepG2, read-out: IC50 ± SD, HepG2
# Method: as §1
# [5] = system: LS-180 (colon cancer); assay: MTT cytotoxicity assay on LS-180 cells; assay type: cell-based, human; conditions: for IC50 ± SD, LS180: 24 h incubation; for IC50: Homo sapiens, LS180, 24 h incubation, read-out: IC50 ± SD, LS180
# Method: as §1
# [6] = system: T98G (glioblastoma); assay: MTT cytotoxicity assay on T98G cells; assay type: cell-based; conditions: MTT, 24 h incubation; for IC50: Homo sapiens, T98G, read-out: IC50 ± SD, T98G
# Method: as §1
# [7] = system: CCD-1059Sk (human normal skin fibroblasts); assay: MTT cytotoxicity assay on non-cancerous fibroblasts; assay type: cell-based; conditions: 24 h incubation, non-cancerous cells; for IC50: Homo sapiens, CCD-1059Sk, read-out: IC50 ± SD, CCD-1059-Sk
# Method: as §1
# [8] = system: A375, HepG2, LS-180, T98G and CCD-1059Sk cell lines; assay: MTT cytotoxicity assay, summary statements over several cell lines; assay type: cell-based; conditions: for IC50: Homo sapiens, all cell lines (A375, HepG2, LS-180, T98G, CCD-1059-Sk)
# Method: as §1
# [9] = system: Candida albicans ATCC 102231; assay: Two-fold microdilution broth method, MIC; assay type: cell-based; conditions: 35 °C, 24 h; for MIC: Candida albicans, ATCC102231
# Excerpt: (§2) Antibacterial and antifungal activities of the free ligands L2, L3 and L4 and the corresponding copper(II) complexes C2, C3 and C4 were screened using the two-fold microdilution broth method. Minimal inhibitory concentrations (MICs) of tested compounds for the panel of reference Gram-positive bacteria, including Staphylococcus aureus ATCC 25923, Staphylococcus aureus ATCC BAA-1707, Staphylococcus epidermidis ATCC 12228, Micrococcus luteus ATCC 10240 and Bacillus cereus ATCC 10876; Gram-negative bacteria, including Salmonella Typhimurium ATCC 14028, Escherichia coli ATCC 25922, Proteus mirabilis ATCC 12453, Klebsiella pneumoniae ATCC 13883 and Pseudomonas aeruginosa ATCC 9027; and yeasts, including Candida albicans ATCC 102231, Candida parapsilosis ATCC 22019 and Candida glabrata ATCC 90030 were determined. The procedure has been described in detail before. Briefly, the solutions of tested compounds dissolved in dimethylosulfoxide (DMSO) were suspended in Mueller–Hinton broth for bacteria or Mueller–Hinton broth with 2% glucose for fungi. Then, the series of two-fold dilutions were carried out in the sterile Nunc™ MicroWell™ 96-Well Microplates (ThermoFisher Scientific Inc.), obtaining concentrations from 1000 to 7.8 mg/L in the appropriate medium. Simultaneously, the inocula of 24 h cultures of microorganisms in sterile physiological saline (0.5 McFarland standard density) were prepared and added to each well, obtaining final density of 5 × 10^5 CFU/mL for bacteria and 5 × 10^4 CFU/mL for yeasts. Proper positive (inoculum without tested compound) and negative (compound without inoculum) controls were added in each microplate. After incubation (35 °C, 24 h), the growth of microorganisms was measured spectrophotometrically at 600 nm (BioTEK ELx808, Bio-Tek Instruments, Inc., Winooski, VT, USA). MICs were marked at the lowest concentration of the compound without the growth of bacteria or fungi.
# [10] = system: Candida glabrata ATCC 90030; assay: Two-fold microdilution broth method, MIC; assay type: cell-based; conditions: 35 °C, 24 h; for MIC: Nakaseomyces glabratus, ATCC90030
# Excerpt: as §2
# [11] = system: Candida parapsilosis ATCC 22019; assay: Two-fold microdilution broth method, MIC; assay type: cell-based; conditions: 35 °C, 24 h; for MIC: Lodderomyces parapsilosis, ATCC22019
# Excerpt: as §2
# [12] = system: Candida; assay: Two-fold microdilution broth method, MIC, yeasts (summary); assay type: cell-based; conditions: range over the three yeast strains; read-out: MIC, anti-Candida activity
# Excerpt: Antibacterial and antifungal activities of the free ligands L2, L3 and L4 and the corresponding copper(II) complexes C2, C3 and C4 were screened using the two-fold microdilution broth method. Minimal inhibitory concentrations (MICs) of tested compounds for the panel of reference Gram-positive bacteria, including Staphylococcus aureus ATCC 25923, Staphylococcus aureus ATCC BAA-1707, Staphylococcus epidermidis ATCC 12228, Micrococcus luteus ATCC 10240 and Bacillus cereus ATCC 10876; Gram-negative bacteria, including Salmonella Typhimurium ATCC 14028, Escherichia coli ATCC 25922, Proteus mirabilis ATCC 12453, Klebsiella pneumoniae ATCC 13883 and Pseudomonas aeruginosa ATCC 9027; and yeasts, including Candida albicans ATCC 102231, Candida parapsilosis ATCC 22019 and Candida glabrata ATCC 90030 were determined. The procedure has been described in detail before. Briefly, the solutions of tested compounds dissolved in dimethylosulfoxide (DMSO) were suspended in Mueller–Hinton broth for bacteria or Mueller–Hinton broth with 2% glucose for fungi. […] After incubation (35 °C, 24 h), the growth of microorganisms was measured spectrophotometrically at 600 nm (BioTEK ELx808, Bio-Tek Instruments, Inc., Winooski, VT, USA). […]
Compound,IC50 DPPH [1] [µg/mL],IC50 ABTS [2],"IC50 ± SD, A375 [3] [µg/mL]","IC50 ± SD, LS180 [5] [µg/mL]","IC50 ± SD, T98G [6] [µg/mL]","IC50 ± SD, CCD-1059-Sk [7] [µg/mL]",IC50 [3] [µg/mL],IC50 [4] [µg/mL],IC50 [5] [µg/mL],IC50 [6] [µg/mL],IC50 [7] [µg/mL],IC50 [8] [µg/mL],MIC [9] [µg/mL],MIC [10] [µg/mL],MIC [11] [µg/mL],also measured
"O=C1O[C@H]([C@@H](O)CO)C(O)=C1O [Ascorbic acid, reference compound]",11.65 ± 0.54,20.15 ± 0.33 µg/mL,,,,,,,,,,,,,,
"O=C1CCN1c1cc2ccccc2cn1.O=C1CCN1c1cc2ccccc2cn1.[Cl][Cu][Cl] [C1, Dichloro{bis[1-(Isoquinolin-3-yl)azetidin-2-one]}copper(II)]",37.45 ± 0.66,112.67 ± 1.8 µg/mL,37.97 ± 3.01,11.46 ± 0.69,8.25 ± 0.36,18.83 ± 0.91,,,,,,,,,,"IC50 ± SD, HepG2 [4]: 14.89 ± 0.56 µg/mL; IC50, HepG2 and T98G ([8]; range over HepG2 and T98G): 8.25 to 14.89 µg/mL"
"CN1CCN(c2cc3ccccc3cn2)C1=O.[Cl][Cu][Cl] [C3, Dichloro[1-(Isoquinolin-3-yl)-3-methylimidazolidin-2-one]copper(II)]",380.65 ± 2.74,106.19 ± 2.55 µg/mL,22.78 ± 1.14,7.09 ± 0.53,10.55 ± 0.74,25.17 ± 0.85,,,,,,,,,,"IC50 ± SD, HepG2 [4]: 12.00 ± 0.36 µg/mL; MIC, C. albicans ATCC 102231 [9]: 1000 µg/mL; MIC, C. glabrata ATCC 90030 [10]: 1000 µg/mL; MIC, C. parapsilosis ATCC 22019 [11]: 1000 µg/mL"
"CCN1CCN(c2cc3ccccc3cn2)C1=O.[Cl][Cu][Cl] [C4, Dichloro[1-ethyl-3-(isoquinolin-3-yl)imidazolidin-2-one]copper(II)]",26.46 ± 1.04,72.5 ± 0.97 µg/mL,37.80 ± 3.11,5.92 ± 0.54,9.27 ± 0.11,18.25 ± 1.37,,,,,,,,,,"IC50, HepG2, LS180 and T98G ([8]; range over HepG2, LS180 and T98G): 5.92 to 9.27 µg/mL; MIC, C. albicans ATCC 102231 [9]: 500 µg/mL; MIC, C. glabrata ATCC 90030 [10]: >1000 µg/mL; MIC, C. parapsilosis ATCC 22019 [11]: >1000 µg/mL"
"COc1cc([C@@H]2c3cc4c(cc3[C@@H](O[C@@H]3O[C@@H]5CO[C@@H](C)O[C@H]5[C@H](O)[C@H]3O)[C@H]3COC(=O)[C@H]23)OCO4)cc(OC)c1O [Etoposide, etoposide, reference compound]",,,,,,,10.2 ± 0.83,43.2 ± 2.75,> 100,> 100,83.5 ± 3.19,,,,,
"O=C1CCN1c1cc2ccccc2cn1 [L1, 1-(isoquinolin-3-yl)azetidin-2-one]",,183.21 ± 2.45 µg/mL,,,,,> 200,> 200,> 200,> 200,> 200,> 200,,,,
"O=C1NCCN1c1cc2ccccc2cn1 [L2, 1-(isoquinolin-3-yl)imidazolidin-2-one]",,82.08 ± 2.77 µg/mL,,,,,> 200,> 200,> 200,> 200,> 200,> 200,500,> 1000,1000,melting point: 234 to 236 °C
"CN1CCN(c2cc3ccccc3cn2)C1=O [L3, 1-(isoquinolin-3-yl)-3-methylimidazolidin-2-one]",,96.76 µg/mL and 96.67 ± 2.84 µg/mL,,,,,> 200,> 200,> 200,> 200,> 200,> 200,250,250,125,MIC [12]: 125 to 250 µg/mL
"CCN1CCN(c2cc3ccccc3cn2)C1=O [L4, 1-ethyl-3-(isoquinolin-3-yl)imidazolidin-2-one]",,108.59 ± 1.51 µg/mL,,,,,> 200,> 200,> 200,> 200,> 200,> 200,1000,1000,> 1000,melting point: 151 to 153 °C

# Reference: PMC10779222, “Copper(II) Complexes with 1-(Isoquinolin-3-yl)heteroalkyl-2-ones: Synthesis, Structure and Evaluation of Anticancer, Antimicrobial and Antioxidant Potential” (International Journal of Molecular Sciences, 2023)
